Laboratory results: patent US11795460B2, “Compositions and methods for TTR gene editing and treating ATTR amyloidosis” (Intellia Therapeutics, Inc., priority 2017, dated 2023)

Key:
TTR [1] = experiment: TTR editing in HEK293_Cas9 cells transfected with dgRNAs (Table 4); format: cell-based, human; details: HEK293_Cas9 cells (constitutively express Spy Cas9) transfected with dgRNAs
Outline: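 Percent editing, taken from amplicon NGS as the fraction of all reads carrying insertions, deletions or substitutions, was measured 24, 48 or 72 h after delivery. Delivery used RNAiMAX lipoplexes of 25 nM each crRNA and trRNA into HEK293 cells stably expressing Spy Cas9.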

TTR [2] = experiment: TTR editing in primary human hepatocytes electroporated with Spy Cas9 protein loaded with dgRNAs (Table 7); format: cell-based; details: dgRNA electroporated with Spy Cas9 protein (RNP)
Outline: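 Editing efficiency is the fraction of NGS reads carrying insertions, deletions or substitutions at the TTR target, measured on MiSeq amplicons from DNA harvested 24, 48 or 72 h post-delivery. Cas9–dgRNA ribonucleoprotein was nucleofected (P3 buffer, EX-147) into primary human or cyno hepatocytes.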

TTR [3] = experiment: TTR editing in primary human hepatocytes transfected with Spy Cas9 protein (RNP) loaded with dgRNAs (Table 8); format: cell-based; details: dgRNA transfected with Spy Cas9 protein (RNP)
Outline: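 Primary human hepatocytes were lipofected (RNAiMAX) with RNP of Spy Cas9 (10 nM) plus pre-annealed crRNA (10 nM) and trRNA (10 nM) and harvested 24, 48 or 72 h later. Target-site amplicons were sequenced on Illumina MiSeq and aligned to hg38; percent editing = reads with indels or substitutions over total reads.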

TTR [4] = experiment: TTR editing in primary human hepatocytes transfected with Spy Cas9 mRNA and dgRNAs (Table 9); format: cell-based; details: dgRNA co-transfected with Spy Cas9 mRNA (SEQ ID NO:2)
Outline: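 PHH sequentially lipofected with Spy Cas9 mRNA (100 ng), then crRNA plus tracrRNA (25 nM each) dual-guide lipoplex. Cells harvested 24, 48 or 72 h post-transfection; TTR target amplicons sequenced on Illumina MiSeq, editing given as percent reads with indels or substitutions over total reads.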

Sequence	Avg % Deletion (TTR [1])	Avg % Edit (TTR [1])	Avg % Insert (TTR [1])	Avg % Deletion (TTR [2])	Avg % Edit (TTR [2])	Avg % Insert (TTR [2])	Avg % Deletion (TTR [3])	Avg % Edit (TTR [3])	Avg % Insert (TTR [3])	Avg % Deletion (TTR [4])	Avg % Edit (TTR [4])	Avg % Insert (TTR [4])
ACCUCUGCAUGCUCAUGGAA (tested as dual guide RNA, chemistry not given here) [CR003371]	21.76%	25.60%	3.84%	1.87%	16.20%	14.47%	1.57%	18.80%	17.23%	0.73%	3.40%	2.67%
GCAACUUACCCAGAGGCAAA (tested as dual guide RNA, chemistry not given here) [CR003356]	22.19%	32.21%	10.03%	2.23%	9.97%	7.80%	1.29%	7.53%	6.24%	2.67%	7.27%	4.70%
AUAGGAGUAGGGGCUCAGCA (tested as dual guide RNA, chemistry not given here) [CR003383]	15.35%	40.47%	25.12%	5.27%	8.57%	3.37%	0.24%	4.76%	4.52%	13.70%	15.70%	2.07%
GGCUGUCGUCACCAAUCCCA (tested as dual guide RNA, chemistry not given here) [CR003391]	44.19%	44.81%	0.61%	0.27%	29.77%	29.57%	0.26%	34.72%	34.46%	0.30%	15.47%	15.20%
UGGACUGGUAUUUGUGUCUG (tested as dual guide RNA, chemistry not given here) [CR003340]	14.50%	42.38%	27.88%	6.50%	12.03%	5.60%	4.50%	10.44%	5.94%	23.17%	24.97%	1.83%
CAGAGGACACUUGGAUUCAC (tested as dual guide RNA, chemistry not given here) [CR003343]	19.53%	24.36%	4.82%	1.50%	77.10%	75.63%	1.63%	43.25%	41.61%	2.60%	55.03%	52.40%
CUUCUCUACACCCAGGGCAC (tested as dual guide RNA, chemistry not given here) [CR003342]	35.38%	36.57%	1.19%	0.90%	32.77%	31.87%	0.81%	20.66%	19.85%	1.50%	22.10%	20.60%
GGGAUUGGUGACGACAGCCG (tested as dual guide RNA, chemistry not given here) [CR003390]	23.71%	28.02%	4.31%	0.23%	15.97%	15.80%	0.24%	16.09%	15.85%	1.60%	20.23%	18.73%
